From patent publication US20250017888A1, “COMPOUNDS FOR TREATING DISEASES ASSOCIATED WITH HYALURONAN OVERPRODUCTION” (THE ROYAL VETERINARY COLLEGE, priority 2021, published 2025)

How the values were obtained:
[1] = system: Str/ort mice; assay: Micro-CT of tibial trabecular and cortical bone in Str/ort mice; assay type: in vivo, mouse; details: 10-90% of total tibial length, vs vehicle
[2] = system: Str/ort mice; assay: as above; assay type: in vivo, mouse
Description: At 10-13 weeks of age, 21 male Str/ort mice (n=7/group) were assigned randomly to vehicle, hylin-betaine and xantho-betaine groups and were treated intraperitoneally 18 weeks with either vehicle (5% DMSO in 95% peanut oil), 50 mg/kg compound of Example 1 (“hylin-betaine”) in 5% DMSO and 95% peanut oil or 50 mg/kg compound of Example 2 (“xantho-betaine”) in 5% DMSO and 95% peanut oil. Micro-CT scanning and analysis were performed as described previously. Briefly, tibiae from vehicle, hylin-betaine and xantho-betaine treated groups were scanned using the Skyscan 1172 (Skyscan, Kontich, Belgium), with x-ray tube operated at 50 kV and 200 Micro-A, 1600 ms exposure time with a 0.5 mm aluminium filter and a voxel size of micro-m 5. The scanning time for each sample was approximately 2 hours. The slices were then reconstructed using NRecon 1.6.9.4 (Skyscan, Kontich, Belgium). 2D/3D analyses were performed using CTAn 1.15.4.0+ version software (Skyscan, Kontich, Belgium). Additionally, 3D visualization and production of colour-coded images of trabecular, cortical and skull bones were conducted using Avizo 9.0.0 software (FEI, Oregon USA). • a. Trabecular analysis: prior to analysis, Micro-CT images were re-oriented in DataViewer 1.5.0 (Skyscan, Kontich, Belgium), such that the cross-section within the transverse plane was perpendicular to the long axis of the bone. Tibial length was measured in CTAn 1.15.4.0+ software using a straight line measuring tool and the appearance of the trabecular ‘bridge’ connecting the two primary spongiosa bone ‘islands’ was set as reference point for analysis of the metaphyseal trabecular bone adjacent to the epiphyseal growth plate. 5% of the total bone length from this point (towards the diaphysis) was utilised for trabecular analysis of the proximal tibia. The trabecular region of interest was drawn freehand using the selection tool of CTAn, a few voxels away from the endocortical surfaces in order to avoid inclusion of remnants of primary spongiosa associated with cortical bone. The selected trabecular regions of interests were analysed using CTAn BatMan software (Skyscan, Kontich, Belgium) and morphometric parameters were recorded. • b. Whole bone cortical analysis: Whole bone analysis was performed on datasets derived from CT scans using BoneJ (version 1.4.0), an ImageJ plugin. Following segmentation, alignment and removal of fibula from the dataset, a minimum bone threshold was selected using a histogram based method in ImageJ which utilises all pixels in a stack to construct a histogram and was further confirmed using ImageJ “threshold function”. The threshold ranged between 22000-22100 and was applied to all datasets to separate higher density bone from soft tissues and air. This threshold was used in “Slice Geometry” function within BoneJ to calculate bone cross sectional area (CSA), second moment of area around the minor axis (Imin), second moment of area around the major axis (Imax), mean thickness determined by local thickness in two dimensions (Ct.Th), ellipticity and resistance to torsion (J). The most proximal (15%) and the most distal portions (25%) of tibial length were excluded from analysis, as these regions include trabecular bone.

[3] = system: chondrosarcoma cells; assay: Uptake of flavonoids into chondrosarcoma cells by intracellular fluorescence; assay type: cell-based; details: concentration dependence, FIG. 2A
Description: Confluent monolayers of chondrosarcoma cells on 96 well microtiter plates were incubated with 100 μM solutions of flavonoids in serum-free Quantum medium. Changes in fluorescence were monitored from the bottom of the wells at excitation and emission wavelengths of 340 nm and 450 nm for xanthohumol and at 440 nm and 530 nm for quercetin, respectively.
Flavonoids are weakly fluorescent in aqueous buffer, but greatly enhance the fluorescence in the presence of proteins (Sengupta, B. and Sengupta, P. K., Biochem. Biophys. Res. Commun., 2002, 299, 400-403). This property was used to follow the uptake of quercetin and xanthohumol into chondrosarcoma cells.

[4] = Alamar blue toxicity assay (FIG. 1); assay type: cell-based; details: below concentrations of 100 μM
Description: The hyaluronan synthase activity (Prehm, P. and Schumacher, U., Biochem. Pharmacol. 2004, 68, 1401-1410), the cytotoxicity of the drugs (O'Brien, J. et al., Eur. J. Biochem. 2000, 267, 5421-5426), proteoglycan synthesis rate, hyaluronan (Prehm, P. J. Rheumatol., 2005, 32, 690-696) and proteoglycan (Bjornsson, S. Anal. Biochem. 1993, 210, 282-291) were determined as described. The effect of the prenylflavonoids on the MRP5 export rate was measured with fluorescein diacetate as described (Schulz, T., Schumacher, U., and Prehm, P., J Biol. Chem., 2007, 282, 20999-21004). The determination of the IC50 values on the phosphodiesterase 5 was performed according to the instructions of BPS Bioscience. The culture of bovine chondrocytes in alginate beads and of explants of bovine cartilage was described previously (Deiters, B. and Prehm, P. Arthritis Res. Ther., 2008, 10, R8; Prehm, P. J. Rheumatol. 2005, 32, 690-696). Osteoarthritic reactions were induced in chondrocytes growing in alginate beads by incubation with medium containing 10 ng/ml of II-17 for 6 days, and in cartilage explants with 10 ng/ml of II-17 and 5 ng/ml of II-1α. The supernatants were withdrawn and stored at −20° C. for later analysis. The explants were weighed and extracted with 1 ml of 4 M guanidinium-HCl for 72 hours at 4° C. The proteoglycan concentrations were determined in the extracts.
The toxicity was determined by the Alamar blue assay.

Compound: COc1cc(O)c(CC=C(C)C)c(O)c1C(=O)/C=C/c1ccc(OC(=O)C[N+](C)(C)C)cc1.[Cl-] [Xantho-betaine, (E)-2-(4-(3-(2,4-dihydroxy-6-methoxy-3-(3-methylbut-2-en-1-yl)phenyl)-3-oxoprop-1-en-1-yl)phenoxy)-N,N,N-trimethyl-2-oxoethanaminium chloride]
- effect on cortical bone (overall) [1]: significantly alter
- metaphyseal trabecular bone architecture and mass (tibial length, BV/TV, TV, BV, eccentricity, thickness, separation, number) ([2]; 50 mg/kg intraperitoneally, 18 weeks, vs vehicle): do not alter
- cortical cross-sectional area (CSA) ([2]; apart from one distal region and a region close to tibio-fibula junction): do not significantly
- predicted tibial resistance to torsion (J) ([2]; multiple regions across tibial length, vs vehicle): higher
- mean cortical cross-sectional thickness ([2]; multiple regions from −15-60% tibial length, vs vehicle): higher in some regions and lower in other regions
- second moment of area around minor axis (Imin) ([2]; vs vehicle, one region proximally): significantly lowers
- tibial ellipticity ([2]; vs vehicle, region ˜40-50% along the tibia): greater ellipticity
- second moment of area around major axis (Imax) ([2]; vs vehicle, ˜35-55% of tibial length): significantly increased
- uptake into chondrosarcoma cells (intracellular fluorescence) [3]: taken up in a concentration dependent manner
- toxicity in Alamar blue assay [4]: not toxic
